Measured values as given in article PMC5860131, “Identification of natural products as novel ligands for the human 5-HT2C receptor” (Biophysics Reports, 2018).

Tests used:
[1] = target: T1, 5-HT2C receptor G218^5.42A (Homo sapiens, UniProt P28335, DEL255-298/G218A/G251D/H250E/H252N/INS299[…]/L248D/M247A/M300L/T253W); experiment: Affinity MS assay, 5-HT2C mutant G218A; type: binding
T1 construct: the N- and C-terminals were truncated by 39 and 65 residues, respectively; PreScission protease site + 10× His (C); made in house
Description: Based on the binding poses predicted by molecular docking, single-point mutations were designed to test their impact on ligand binding. Mutations of several residues include the highly conserved Asp134^3.32, which is known to cause 5-HT1B or 5-HT2B receptors to abolish the monoamine ligand binding as reported in the literature (Wang et al. [2013]). In this study, residues forming hydrophobic interactions with the substitution groups on the aporphine scaffold of (–)-crebanine (1) were selected for mutation as well and they are Thr139^3.37, Gly218^5.42, Ala222^5.46, and Leu209^ECL2. Effects of those mutations were tested with the CPM assay and the affinity MS assay (Table 2). In the affinity MS experiment, relative ligand-binding capacity (represented by binding %) to different mutants and the wild-type receptor was compared. Among the six mutations tested, five of them reduced the binding of (–)-crebanine (1) by more than 40% relative to binding to the wild-type receptor, displaying the importance of hydrophobic interactions. […]
Four experimental replicates were prepared for each pair of the test ligand and the negative control. […] S/C ratios refer to the ratio of MS response of a specific ligand detected in the 5-HT2C incubation sample versus the control. […]

5-HT2C receptor = target: T2, 5-HT2C receptor (Homo sapiens, UniProt P28335); experiment: Ca2+ mobilization assay (Fluo-4, FLIPR), HEK 293T cells stably transfected with 5-HT2C; type: cell-based
T2 construct: expressed in transfected cells; host or cells: HEK 293T, stably transfected
T2 sequence (P28335 33-458): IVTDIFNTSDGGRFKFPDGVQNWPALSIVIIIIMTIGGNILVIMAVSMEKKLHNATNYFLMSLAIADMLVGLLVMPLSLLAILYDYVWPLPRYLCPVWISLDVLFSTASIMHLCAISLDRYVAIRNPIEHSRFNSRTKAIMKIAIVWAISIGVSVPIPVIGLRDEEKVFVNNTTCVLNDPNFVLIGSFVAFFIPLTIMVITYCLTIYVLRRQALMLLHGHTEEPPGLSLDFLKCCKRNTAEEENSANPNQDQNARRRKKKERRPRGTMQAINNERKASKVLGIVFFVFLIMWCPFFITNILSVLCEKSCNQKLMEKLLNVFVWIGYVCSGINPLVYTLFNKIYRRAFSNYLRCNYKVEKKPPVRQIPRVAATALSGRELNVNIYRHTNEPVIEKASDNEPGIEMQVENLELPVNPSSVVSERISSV
Description: The 5-HT2C receptor mainly couples to Gαq proteins. The activated 5-HT2C receptor transmits the signals from the extracellular to the intercellular side using DAG/IP3 (diacyl glycerol/inositol 1,4,5-trisphosphate) as its second massagers (Hannon and Hoyer [2008]). IP3 stimulates the endoplasmic reticulum to release calcium ions into the cytoplasm, which causes the increase of calcium concentration in cytosol. Therefore, calcium mobilization assay is commonly applied to understand how unknown small molecule ligands of 5-HT2C receptor modulate cellular signal transductions. In this case, Fluo-4 Direct dye was used as a fluorescence indicator to detect calcium flux in G protein-coupled receptor expressed cells. The fold of maximum response over average of basal reading is plotted against compound concentration to determine the potency of the compounds (Fig. 3). […]. HEK 293T cells stably transfected with 5-HT2A/2B/2C receptor were seeded in 384-well plates at a density of 15,000 cells/well in DMEM containing 1% dialyzed FBS 8 h before the calcium flux assay. After removing medium, cells were then incubated (20 μl/well) for 1 h at 37 °C with Fluo-4 Direct dye (Invitrogen) reconstituted in FLIPR buffer (1× HBSS, 2.5 mmol/L probenecid, and 20 mmol/L HEPES, pH 7.4). After the dye loaded, cells were placed in a FLIPR^TETRA fluorescence imaging plate reader (Molecular Devices); drug dilutions, prepared at 3× final concentration in FLIPR buffer and aliquotted into 384-well plates, were also added to the FLIPR^TETRA. The fluidics module and plate reader of the FLIPR^TETRA were programmed to read baseline fluorescence for 10 s (1 read/s), then to add 10 μl of drug/well and to read for 6 min (1 read/s). Fluorescence in each well was normalized to the average of the first 10 reads (i.e., baseline fluorescence). Then, the maximum-fold increase, which occurred within 60 s after drug addition, over baseline fluorescence elicited by vehicle or drug was determined. […]

T1 sequence (P28335 with tags, fused parts or gaps with the stated changes): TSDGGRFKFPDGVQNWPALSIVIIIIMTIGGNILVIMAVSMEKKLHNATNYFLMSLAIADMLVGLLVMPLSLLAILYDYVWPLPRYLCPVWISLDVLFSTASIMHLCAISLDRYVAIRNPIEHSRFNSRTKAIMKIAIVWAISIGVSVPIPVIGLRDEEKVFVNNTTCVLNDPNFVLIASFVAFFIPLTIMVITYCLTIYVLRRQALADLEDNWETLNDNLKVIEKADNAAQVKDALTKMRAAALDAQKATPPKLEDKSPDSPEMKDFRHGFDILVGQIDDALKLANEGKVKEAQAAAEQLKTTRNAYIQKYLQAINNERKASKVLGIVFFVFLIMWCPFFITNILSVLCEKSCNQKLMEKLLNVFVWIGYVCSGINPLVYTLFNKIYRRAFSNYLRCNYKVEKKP

SMILES: COc1ccc2c(c1OC)C[C@@H]1c3c(cc4c(c3-2)OCO4)CCN1C [Compound 1, (–)-crebanine]
- (–)-Crebanine/MS relative ligand binding ([1]; mutant G218^5.42A, n = 2): 9.82%
- ligand-binding capacity reduction versus wild-type ([1]; mutation Gly218^5.42Ala): over 60%
- IC50 (5-HT2C receptor): 149 nM
